Source: patent US20110256579A1, “Method for Verifying and/or Identifying Hormonally Effective Substances” (TECHNISCHE UNIVERSITAET DRESDEN, priority 2008, published 2011)

System: surface receptors of the a-yeast strain
Assay: Shmoo effect positive control with purified α-factor
Assay type: cell-based, Saccharomyces cerevisiae
Conditions: BY4741 MATa p423GPD-AR1, p426PGK-MFα1; purified α-factor added
Method: The recognition of the α-factor (yeast pheromone) by surface receptors effects inter alia a directed growth (shmoo effect) of the yeast cells toward the source of the pheromone. Under natural conditions this serves for subsequent fusion with the yeast cell of the opposite mating type.
To the positive control purified α-factor is added. […] Based on this control, the androgen-independent induction of the yeast cells can be checked.

Q: For α-factor, which “directed growth (shmoo effect) of the yeast cells” value is on record?
A: The value was “Directed growth of the yeast cells is observed”.
